Source: ChEMBL document CHEMBL1201862, “PubChem BioAssay data set” (2004)
Values belong to the compound of their own block, whether it stands above or below them. Activity calls are given as the source filed them.

Columns and labels:
[1] = target: T1, Short transient receptor potential channel 4 (Mus musculus, UniProt Q9QUQ5); assay: mouse TRPC4 channel activators, dose response, cell-based, HEK293 TRPC4/mu-opioid, Fluo-4 calcium (AID 434937); type: functional
T1 sequence (Q9QUQ5 whole entry): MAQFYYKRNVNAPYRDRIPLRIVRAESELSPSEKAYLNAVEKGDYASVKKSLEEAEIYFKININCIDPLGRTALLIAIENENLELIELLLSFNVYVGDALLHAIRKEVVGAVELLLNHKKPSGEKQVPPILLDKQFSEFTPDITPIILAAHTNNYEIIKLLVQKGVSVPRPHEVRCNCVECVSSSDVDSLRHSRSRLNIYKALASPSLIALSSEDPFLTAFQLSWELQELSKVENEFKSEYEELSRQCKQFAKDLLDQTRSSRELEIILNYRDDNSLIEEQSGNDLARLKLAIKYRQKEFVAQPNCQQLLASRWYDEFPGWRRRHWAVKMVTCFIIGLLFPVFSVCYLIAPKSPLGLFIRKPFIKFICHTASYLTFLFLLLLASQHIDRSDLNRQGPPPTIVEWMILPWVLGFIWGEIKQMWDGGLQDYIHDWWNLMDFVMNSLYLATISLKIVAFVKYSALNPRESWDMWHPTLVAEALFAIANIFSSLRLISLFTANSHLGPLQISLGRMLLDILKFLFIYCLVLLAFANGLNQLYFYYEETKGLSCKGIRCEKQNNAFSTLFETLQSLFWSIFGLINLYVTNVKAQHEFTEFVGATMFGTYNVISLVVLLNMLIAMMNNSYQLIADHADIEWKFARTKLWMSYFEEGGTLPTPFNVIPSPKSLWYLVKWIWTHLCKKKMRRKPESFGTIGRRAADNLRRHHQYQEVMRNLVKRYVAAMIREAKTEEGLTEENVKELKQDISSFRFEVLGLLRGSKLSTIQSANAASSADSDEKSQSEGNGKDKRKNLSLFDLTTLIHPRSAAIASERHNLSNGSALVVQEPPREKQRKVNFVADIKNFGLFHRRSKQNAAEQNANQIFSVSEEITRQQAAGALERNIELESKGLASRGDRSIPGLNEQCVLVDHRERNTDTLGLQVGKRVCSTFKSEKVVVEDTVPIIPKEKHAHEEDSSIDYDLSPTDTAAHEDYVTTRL

[2] = target: Delta-type opioid receptor (Homo sapiens, UniProt P41143); assay: Counterscreen for agonists of heterodimerization of the mu 1 (OPRM1) and delta 1 (OPRD1) opioid receptors: Luminescence-based cell-based high throughput dose response assay to identify agonists of OPRD1 homodimerization. [Related pubchem assays (depositor defined):AID504326, AID504355, AID504692, AID504904, AID504905]; type: functional
Delta-type opioid receptor, sequence (P41143 whole entry): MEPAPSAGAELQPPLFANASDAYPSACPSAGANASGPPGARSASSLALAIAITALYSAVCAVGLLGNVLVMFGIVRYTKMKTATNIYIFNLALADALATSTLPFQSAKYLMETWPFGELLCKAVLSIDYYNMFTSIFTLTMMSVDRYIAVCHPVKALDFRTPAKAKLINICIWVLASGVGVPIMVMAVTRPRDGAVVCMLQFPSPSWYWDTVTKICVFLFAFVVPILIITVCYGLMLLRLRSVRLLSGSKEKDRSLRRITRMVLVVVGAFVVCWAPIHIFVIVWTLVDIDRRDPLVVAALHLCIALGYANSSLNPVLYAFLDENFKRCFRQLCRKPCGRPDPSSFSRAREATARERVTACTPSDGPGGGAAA

[3] = target: Mu-type opioid receptor (Homo sapiens, UniProt P35372); assay: Counterscreen for agonists of heterodimerization of the mu 1 (OPRM1) and delta 1 (OPRD1) opioid receptors: Luminescence-based cell-based high throughput dose response assay to identify agonists of OPRM1 homodimerization.; type: functional;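 note: U2OS cells expressing OPRM1 and beta-arrestin as split beta-galactosidase partners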
Mu-type opioid receptor, sequence (P35372 whole entry): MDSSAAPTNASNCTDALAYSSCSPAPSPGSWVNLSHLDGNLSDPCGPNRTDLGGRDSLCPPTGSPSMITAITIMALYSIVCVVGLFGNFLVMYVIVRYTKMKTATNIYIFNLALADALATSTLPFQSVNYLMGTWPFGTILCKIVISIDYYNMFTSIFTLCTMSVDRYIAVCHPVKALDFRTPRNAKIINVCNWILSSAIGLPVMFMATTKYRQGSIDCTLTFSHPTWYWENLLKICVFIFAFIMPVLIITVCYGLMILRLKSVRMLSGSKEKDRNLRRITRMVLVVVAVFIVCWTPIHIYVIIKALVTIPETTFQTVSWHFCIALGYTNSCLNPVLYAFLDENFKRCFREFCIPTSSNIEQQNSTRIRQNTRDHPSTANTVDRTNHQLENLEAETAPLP

[4] = target: 5-hydroxytryptamine receptor 5A (Homo sapiens, UniProt P47898); assay: Counterscreen for agonists of OPRM1-OPRD1 heterodimerization: luminescence-based cell-based high throughput dose response assay to identify agonists of 5-hydroxytryptamine (serotonin) 5A receptor (HTR5A). [Related pubchem assays (depositor defined):AID504326, AID504355, AID504692, AID504904, AID504905]; type: functional
5-hydroxytryptamine receptor 5A, sequence (P47898 whole entry): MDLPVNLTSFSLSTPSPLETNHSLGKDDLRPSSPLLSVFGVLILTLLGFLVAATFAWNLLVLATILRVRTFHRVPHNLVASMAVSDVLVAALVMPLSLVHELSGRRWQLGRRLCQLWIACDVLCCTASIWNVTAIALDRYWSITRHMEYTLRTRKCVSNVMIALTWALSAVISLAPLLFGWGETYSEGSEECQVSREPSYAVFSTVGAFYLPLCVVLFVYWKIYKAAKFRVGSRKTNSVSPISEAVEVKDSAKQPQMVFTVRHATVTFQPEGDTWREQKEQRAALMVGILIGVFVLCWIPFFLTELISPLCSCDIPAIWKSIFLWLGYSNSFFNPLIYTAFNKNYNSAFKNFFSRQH

[5] = target: T2, Caspase-3 (Homo sapiens, UniProt P42574); type: functional
T2 sequence (P42574 whole entry): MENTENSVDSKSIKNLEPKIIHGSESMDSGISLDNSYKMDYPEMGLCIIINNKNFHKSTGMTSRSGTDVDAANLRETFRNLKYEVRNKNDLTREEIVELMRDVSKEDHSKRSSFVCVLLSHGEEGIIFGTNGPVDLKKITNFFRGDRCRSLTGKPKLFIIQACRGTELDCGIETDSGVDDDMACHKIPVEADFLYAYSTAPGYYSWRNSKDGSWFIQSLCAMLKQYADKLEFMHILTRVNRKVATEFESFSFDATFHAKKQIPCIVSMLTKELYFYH

[6] = target: T3, Sentrin-specific protease 7 (Homo sapiens, UniProt Q9BQF6); type: functional;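 note: Luminescence-based dose-response confirmation of ultra-high-throughput screening hits, measuring inhibition of SENP7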
T3 sequence (Q9BQF6 whole entry): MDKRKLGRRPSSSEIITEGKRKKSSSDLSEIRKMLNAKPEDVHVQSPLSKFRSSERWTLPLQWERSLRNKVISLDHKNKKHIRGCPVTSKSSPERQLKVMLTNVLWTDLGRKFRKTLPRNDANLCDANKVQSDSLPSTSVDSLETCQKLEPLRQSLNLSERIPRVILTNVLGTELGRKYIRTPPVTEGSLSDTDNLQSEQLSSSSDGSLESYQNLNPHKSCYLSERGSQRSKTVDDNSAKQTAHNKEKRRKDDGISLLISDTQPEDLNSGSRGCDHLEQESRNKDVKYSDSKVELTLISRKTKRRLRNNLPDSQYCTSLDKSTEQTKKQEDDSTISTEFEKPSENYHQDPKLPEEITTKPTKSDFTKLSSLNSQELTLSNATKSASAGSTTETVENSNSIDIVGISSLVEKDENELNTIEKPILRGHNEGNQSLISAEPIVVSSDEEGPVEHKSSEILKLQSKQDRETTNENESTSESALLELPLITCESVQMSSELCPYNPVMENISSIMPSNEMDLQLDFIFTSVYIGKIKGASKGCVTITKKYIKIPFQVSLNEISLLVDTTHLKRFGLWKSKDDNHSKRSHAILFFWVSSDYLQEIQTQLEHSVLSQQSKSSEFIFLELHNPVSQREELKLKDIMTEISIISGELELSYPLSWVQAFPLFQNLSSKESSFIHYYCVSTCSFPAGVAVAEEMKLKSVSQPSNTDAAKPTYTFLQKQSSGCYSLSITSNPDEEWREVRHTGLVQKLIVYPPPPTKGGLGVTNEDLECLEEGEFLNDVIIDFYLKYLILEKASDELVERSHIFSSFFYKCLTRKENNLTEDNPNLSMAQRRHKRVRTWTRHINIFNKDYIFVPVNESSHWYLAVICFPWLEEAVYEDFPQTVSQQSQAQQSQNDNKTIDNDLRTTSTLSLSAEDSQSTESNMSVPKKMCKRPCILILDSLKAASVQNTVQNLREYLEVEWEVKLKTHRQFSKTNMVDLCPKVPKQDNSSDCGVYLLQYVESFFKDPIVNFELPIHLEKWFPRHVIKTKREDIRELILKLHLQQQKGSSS

[7] = target: T4, Sentrin-specific protease 6 (Homo sapiens, UniProt Q9GZR1); type: functional
T4 sequence (Q9GZR1 whole entry): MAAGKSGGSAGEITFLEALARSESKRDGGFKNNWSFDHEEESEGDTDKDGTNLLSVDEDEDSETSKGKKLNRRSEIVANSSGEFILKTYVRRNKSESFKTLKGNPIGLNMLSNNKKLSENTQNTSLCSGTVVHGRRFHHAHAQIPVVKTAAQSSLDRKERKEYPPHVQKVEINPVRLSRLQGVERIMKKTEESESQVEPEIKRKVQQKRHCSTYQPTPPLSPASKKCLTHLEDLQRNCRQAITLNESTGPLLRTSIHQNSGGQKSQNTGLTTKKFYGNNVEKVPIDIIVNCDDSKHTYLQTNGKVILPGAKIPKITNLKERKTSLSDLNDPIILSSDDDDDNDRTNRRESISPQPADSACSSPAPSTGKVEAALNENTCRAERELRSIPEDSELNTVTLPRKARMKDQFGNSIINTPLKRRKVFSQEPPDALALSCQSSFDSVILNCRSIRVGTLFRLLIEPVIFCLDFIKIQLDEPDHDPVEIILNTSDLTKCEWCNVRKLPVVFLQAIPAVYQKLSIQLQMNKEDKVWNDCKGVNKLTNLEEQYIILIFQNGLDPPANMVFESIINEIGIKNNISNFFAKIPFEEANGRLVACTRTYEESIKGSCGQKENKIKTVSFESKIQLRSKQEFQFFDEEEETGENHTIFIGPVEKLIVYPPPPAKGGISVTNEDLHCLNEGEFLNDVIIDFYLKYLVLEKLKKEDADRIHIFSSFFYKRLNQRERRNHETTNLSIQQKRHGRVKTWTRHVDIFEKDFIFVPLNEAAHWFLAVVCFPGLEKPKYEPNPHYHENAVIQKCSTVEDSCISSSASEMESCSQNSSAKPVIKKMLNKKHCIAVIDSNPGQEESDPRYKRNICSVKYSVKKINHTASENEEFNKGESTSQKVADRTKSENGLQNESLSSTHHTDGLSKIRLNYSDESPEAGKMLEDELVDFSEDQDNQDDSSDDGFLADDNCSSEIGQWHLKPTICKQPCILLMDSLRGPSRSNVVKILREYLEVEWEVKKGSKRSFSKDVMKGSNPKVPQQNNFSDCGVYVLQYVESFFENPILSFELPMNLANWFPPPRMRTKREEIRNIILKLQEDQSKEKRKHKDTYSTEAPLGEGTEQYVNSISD

[8] = target: T5, Sentrin-specific protease 8 (Homo sapiens, UniProt Q96LD8); type: functional;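 note: luminescence read-out of SENP8 inhibition, dose-response confirmation following an ultra-high-throughput screen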
T5 sequence (Q96LD8 whole entry): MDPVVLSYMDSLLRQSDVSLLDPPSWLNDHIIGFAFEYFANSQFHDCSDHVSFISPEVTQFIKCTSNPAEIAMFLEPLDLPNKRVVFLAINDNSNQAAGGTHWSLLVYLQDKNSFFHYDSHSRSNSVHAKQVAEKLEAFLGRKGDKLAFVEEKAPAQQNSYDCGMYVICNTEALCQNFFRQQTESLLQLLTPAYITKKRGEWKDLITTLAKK

[9] = target: T5, Sentrin-specific protease 8; assay: SENP8 protease inhibitors, SAR follow-up, biochemical, luminescence (AID 504501); type: functional
[10] = target: T2, Caspase-3; assay: SAR Analysis of small molecule inhibitors of Sentrin-specific proteases (SENPs) using a Caspase-3 Selectivity assay. [Related pubchem assays (depositor defined):AID2540, AID2599, AID434973, AID489001]; type: functional
[11] = target: T4, Sentrin-specific protease 6; assay: SAR Analysis of small molecule inhibitors of Sentrin-specific protease 6 (SENP6) using a Luminescent assay. [Related pubchem assays (depositor defined):AID2582, AID2599]; type: functional
[12] = target: T3, Sentrin-specific protease 7; assay: SENP7 protease inhibitors, SAR follow-up, biochemical, luminescence (AID 504497); type: functional
[13] = target: CAAX prenyl protease 2 (Homo sapiens, UniProt Q9Y256); assay: human Rce1 protease inhibitors, dose response, biochemical, yeast membranes, quenched-peptide fluorescence, cherry-pick (AID 588849)
CAAX prenyl protease 2 (Homo sapiens, UniProt Q9Y256), sequence (Q9Y256 whole entry): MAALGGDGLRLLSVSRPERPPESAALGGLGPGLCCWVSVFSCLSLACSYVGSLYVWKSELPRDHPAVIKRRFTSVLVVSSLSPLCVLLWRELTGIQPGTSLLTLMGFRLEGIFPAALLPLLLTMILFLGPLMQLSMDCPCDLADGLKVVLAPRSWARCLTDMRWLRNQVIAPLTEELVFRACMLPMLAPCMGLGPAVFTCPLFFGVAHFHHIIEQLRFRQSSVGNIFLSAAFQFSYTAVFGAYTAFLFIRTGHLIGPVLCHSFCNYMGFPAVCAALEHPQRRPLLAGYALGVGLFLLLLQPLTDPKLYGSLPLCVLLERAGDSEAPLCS

[14] = target: Beta-2 adrenergic receptor (Homo sapiens, UniProt P07550); assay: beta2AR agonists driving receptor internalization, dose response, cell-based, FAP fluorogen, flow cytometry, cherry pick 1 (AID 588763); type: functional
Beta-2 adrenergic receptor, sequence (P07550 whole entry): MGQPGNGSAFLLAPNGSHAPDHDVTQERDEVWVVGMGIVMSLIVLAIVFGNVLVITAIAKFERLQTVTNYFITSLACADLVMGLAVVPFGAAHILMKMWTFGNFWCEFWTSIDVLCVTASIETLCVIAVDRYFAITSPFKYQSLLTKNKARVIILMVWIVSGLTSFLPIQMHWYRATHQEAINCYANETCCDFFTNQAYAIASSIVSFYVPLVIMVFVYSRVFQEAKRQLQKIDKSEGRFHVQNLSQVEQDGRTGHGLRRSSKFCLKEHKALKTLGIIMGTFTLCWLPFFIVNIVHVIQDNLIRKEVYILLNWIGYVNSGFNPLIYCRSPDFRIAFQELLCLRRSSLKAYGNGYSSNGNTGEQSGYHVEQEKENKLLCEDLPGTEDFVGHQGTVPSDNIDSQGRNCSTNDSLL

[15] = target: Trypsin (Sus scrofa, UniProt P00761); assay: porcine trypsin inhibitors, dose response, selectivity assay for Rce1 protease inhibitor project, biochemical, quenched peptide fluorescence, cherry-pick (AID 488789)
Trypsin, sequence (P00761 whole entry): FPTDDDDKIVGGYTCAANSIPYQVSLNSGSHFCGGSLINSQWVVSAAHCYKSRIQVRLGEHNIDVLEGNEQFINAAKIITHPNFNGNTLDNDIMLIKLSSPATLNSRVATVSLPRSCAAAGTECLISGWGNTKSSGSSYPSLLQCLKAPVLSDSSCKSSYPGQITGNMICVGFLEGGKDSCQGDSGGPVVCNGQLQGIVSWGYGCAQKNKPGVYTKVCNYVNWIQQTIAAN

[16] = target: T6, CAAX prenyl protease 2 (Saccharomyces cerevisiae S288c, UniProt Q03530); type: biochemical
T6 sequence (Q03530 whole entry): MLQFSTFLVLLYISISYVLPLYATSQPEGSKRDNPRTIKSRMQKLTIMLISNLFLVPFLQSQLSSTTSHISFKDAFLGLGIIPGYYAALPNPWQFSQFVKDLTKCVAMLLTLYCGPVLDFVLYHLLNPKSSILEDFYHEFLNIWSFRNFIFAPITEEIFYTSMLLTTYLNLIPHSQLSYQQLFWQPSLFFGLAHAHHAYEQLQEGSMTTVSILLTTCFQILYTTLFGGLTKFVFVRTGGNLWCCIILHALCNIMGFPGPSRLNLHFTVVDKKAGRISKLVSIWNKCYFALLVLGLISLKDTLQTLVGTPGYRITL

[17] = target: T7, Caspase-6 (Homo sapiens, UniProt P55212); assay: human caspase-6 inhibitors, dose response, biochemical, VEID-R110 fluorescence, cherry-pick (AID 720632)
T7 sequence (P55212 whole entry): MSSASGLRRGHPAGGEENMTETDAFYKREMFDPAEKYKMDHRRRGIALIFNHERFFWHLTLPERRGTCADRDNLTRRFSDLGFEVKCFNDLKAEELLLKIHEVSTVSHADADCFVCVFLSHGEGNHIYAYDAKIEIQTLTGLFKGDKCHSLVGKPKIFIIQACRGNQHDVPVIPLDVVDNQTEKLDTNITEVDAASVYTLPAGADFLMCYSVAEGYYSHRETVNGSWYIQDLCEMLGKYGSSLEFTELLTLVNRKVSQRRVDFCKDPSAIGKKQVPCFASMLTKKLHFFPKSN

[18] = tested on: HeLa; assay: HeLa cell cytotoxicity, dose response, cytotoxicity control for MITF activator project, CellTiter-Glo luminescence, cherry-pick samples (AID 540259); type: functional, cell-based; conditions: Homo sapiens

Structure (SMILES): Cc1cccc(NC(S)=NCC(c2cccnc2)N(C)C)c1 (stereo not given)
EC50 [1]: 0.0267 µM (active)
EC50 [2]: > 92.5 µM (inactive)
EC50 [3]: 15.6 µM (inactive)
EC50 [4]: > 92.5 µM (inactive)

Structure (SMILES): C/C(=N/OC(=O)CC(C)C)c1cc(-c2ccc(Cl)cc2)no1
AC50 [18]: 58.7 µM (active)

Structure (SMILES): CC1(C)CNC(=O)c2sc(NC(=O)c3ccccc3)nc2C1
AC50 [18]: 55 µM (active)

Second part, led by results:

IC50 [5]: 18.6 µM (active)
IC50 [6]: 2.41 µM (active)
IC50 [7]: > 100 µM (inactive)
IC50 [10]: 9.05 µM (active)
IC50 [11]: > 99 µM (inactive)
IC50 [12]: 2.33 µM (active)
Structure (SMILES): Cc1ccc(NC(=O)C(=O)c2c[nH]c3ccccc23)cc1
IC50 [8]: > 100 µM (inactive)
IC50 [9]: > 99 µM (inactive)

AC50 [13]: 30 µM (active)
Structure (SMILES): Cc1ccc(CNC(=O)c2cc(-c3ccccc3)nn2CC2CC(c3cccc([N+](=O)[O-])c3)=NO2)cc1 (stereo not given)

EC50 [14]: 0.792 µM (active)
Structure (SMILES): Cc1ccc(OCc2cc(C(=O)NCc3ccc(OC(F)(F)F)cc3)no2)cn1

AC50 [15]: 7.3 µM (active)
AC50 [16]: 32.3 µM (active)
AC50 [13]: 2.25 µM (active)
AC50 [17]: 37.8 µM (active)
Structure (SMILES): Nc1ccc(Cc2ccc(N)c(C(=O)O)c2)cc1C(=O)O
